Patent publication US12448399B2, “Cereblon-based KRAS degrading PROTACs and uses related thereto” (Arvinas Operations, Inc., priority 2023, dated 2025)

Target: T1, KRas-G12D (Homo sapiens, UniProt P01116, G12D)
T1 construct: insert the HiBiT tag onto the N-terminus of one or more of the endogenous KRas alleles; host or cells: AsPC-1 HiBiT-KRasG12D knock-in clone (one tagged allele, two untagged KRasG12D alleles)
Assay: HiBiT Degradation Assay (G12D), AsPC-1 HiBiT-KRasG12D cells, 24 hr
Assay type: cell-based
Conditions: for Dmax: ASPC1, AsPC-1 cells, maximum degradation observed; for DC50: AsPC-1 cells
How it was run: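 Degradation was read after 24 hr compound exposure (0.5% DMSO, 37° C) by Nano-Glo HiBiT lytic luminescence in AsPC-1 cells carrying a HiBiT tag on one of three KRasG12D alleles. Signal relative to DMSO gave DC50 and Dmax by 4-parameter fit; alamar blue fluorescence monitored cytotoxicity.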

T1 sequence (P01116 1-188 isoform P01116-2 G12D): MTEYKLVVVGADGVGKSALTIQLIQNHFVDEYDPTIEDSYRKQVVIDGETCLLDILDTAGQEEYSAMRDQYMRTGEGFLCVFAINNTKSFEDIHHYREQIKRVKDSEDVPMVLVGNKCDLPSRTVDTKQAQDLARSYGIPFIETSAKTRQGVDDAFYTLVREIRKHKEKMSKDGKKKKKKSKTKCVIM

SMILES	Dmax [%]	DC50 [µM]
C#Cc1c(F)ccc2cc(O)cc(-c3ncc4c(N5CC6CCC(C5)N6)nc(OC[C@@H]5C[C@@H](OC6CCN(CC7CCN(c8ccc9c(c8F)n(C)c(=O)n9C8CCC(=O)NC8=O)CC7)CC6)CN5C)nc4c3F)c12 (stereo partly drawn) [Compound 213, 3-(5-{4-[(4-{[(3R,5S)-5-{[(4-{3,8-diazabicyclo[3.2.1]octan-3-yl}-7-(8-ethynyl-7-fluoro-3-hydroxynaphthalen-1-yl)-8-fluoropyrido[4,3-d]pyrimidin-2-yl)oxy]methyl}-1-methylpyrrolidin-3-yl]oxy}piperidin-1-yl)methyl]piperidin-1-yl}-4-fluoro-3-methyl-2-oxo-2,3-dihydro-1H-1,3-benzodiazol-1-yl)piperidine-2,6-dione]	> 70	< 5.1
C#Cc1c(F)ccc2cc(O)cc(-c3ncc4c(N5CC6CCC(C5)N6)nc(OCCN5CCC(CC6CCN(CC7CCN(c8ccc9c(c8F)CN([C@H]8CCC(=O)NC8=O)C9=O)CC7)CC6)CC5)nc4c3F)c12 [Compound 214, (3S)-3-{5-[4-({4-[(1-{2-[(4-{3,8-diazabicyclo[3.2.1]octan-3-yl}-7-(8-ethynyl-7-fluoro-3-hydroxynaphthalen-1-yl)-8-fluoropyrido[4,3-d]pyrimidin-2-yl)oxy]ethyl}piperidin-4-yl)methyl]piperidin-1-yl}methyl)piperidin-1-yl]-4-fluoro-1-oxo-2,3-dihydro-1H-isoindol-2-yl}piperidine-2,6-dione]	> 70	< 5.1
C#Cc1c(F)ccc2cc(O)cc(-c3ncc4c(N5CC6CCC(C5)N6)nc(OCCN5CCC(CC6CCN(CC7CCN(c8ccc9c(c8)CN([C@H]8CCC(=O)NC8=O)C9=O)CC7)CC6)CC5)nc4c3F)c12 [Compound 215, (3S)-3-{5-[4-({4-[(1-{2-[(4-{3,8-diazabicyclo[3.2.1]octan-3-yl}-7-(8-ethynyl-7-fluoro-3-hydroxynaphthalen-1-yl)-8-fluoropyrido[4,3-d]pyrimidin-2-yl)oxy]ethyl}piperidin-4-yl)methyl]piperidin-1-yl}methyl)piperidin-1-yl]-1-oxo-2,3-dihydro-1H-isoindol-2-yl}piperidine-2,6-dione]	> 70	< 5.1
C#Cc1c(F)ccc2cc(O)cc(-c3ncc4c(N5CC6CCC(C5)N6)nc(OCCN5CCC(CC6CCN(CC7CCN(c8ccc9c(c8)CN([C@@H]8CCC(=O)NC8=O)C9=O)CC7)CC6)CC5)nc4c3F)c12 [Compound 216, (3R)-3-{5-[4-({4-[(1-{2-[(4-{3,8-diazabicyclo[3.2.1]octan-3-yl}-7-(8-ethynyl-7-fluoro-3-hydroxynaphthalen-1-yl)-8-fluoropyrido[4,3-d]pyrimidin-2-yl)oxy]ethyl}piperidin-4-yl)methyl]piperidin-1-yl}methyl)piperidin-1-yl]-1-oxo-2,3-dihydro-1H-isoindol-2-yl}piperidine-2,6-dione]	> 70	< 5.1
C#Cc1c(F)ccc2cc(O)cc(-c3ncc4c(N5CC6CCC(C5)N6)nc(OCCN5CCC(CC6CCN(CC7CCN(c8ccc9c(c8F)n(C(C)C)c(=O)n9C8CCC(=O)NC8=O)CC7)CC6)CC5)nc4c3F)c12 (centres unmarked) [Compound 217, 3-{5-[4-({4-[(1-{2-[(4-{3,8-diazabicyclo[3.2.1]octan-3-yl}-7-(8-ethynyl-7-fluoro-3-hydroxynaphthalen-1-yl)-8-fluoropyrido[4,3-d]pyrimidin-2-yl)oxy]ethyl}piperidin-4-yl)methyl]piperidin-1-yl}methyl)piperidin-1-yl]-4-fluoro-2-oxo-3-(propan-2-yl)-2,3-dihydro-1H-1,3-benzodiazol-1-yl}piperidine-2,6-dione]	> 70	< 5.1
C#Cc1c(F)ccc2cc(O)cc(-c3ncc4c(N5CC6CCC(C5)N6)nc(OCCN5CCC6(CC5)CCN(CC5CCN(c7ccc8c(c7)n(C)c(=O)n8C7CCC(=O)NC7=O)CC5)CC6)nc4c3F)c12 (centres unmarked) [Compound 218, 3-(5-{4-[(9-{2-[(4-{3,8-diazabicyclo[3.2.1]octan-3-yl}-7-(8-ethynyl-7-fluoro-3-hydroxynaphthalen-1-yl)-8-fluoropyrido[4,3-d]pyrimidin-2-yl)oxy]ethyl}-3,9-diazaspiro[5.5]undecan-3-yl)methyl]piperidin-1-yl}-3-methyl-2-oxo-2,3-dihydro-1H-1,3-benzodiazol-1-yl)piperidine-2,6-dione]	> 70	< 5.1
C#Cc1c(F)ccc2cc(O)cc(-c3ncc4c(N5CC6CCC(C5)N6)nc(OCCN5CCC(CN6CCN(CC7CCN(c8ccc9c(c8Cl)CN(C8CCC(=O)NC8=O)C9=O)CC7)CC6)CC5)nc4c3F)c12 (centres unmarked) [Compound 219, 3-[4-chloro-5-[4-[[4-[[1-[2-[4-(3,8-diazabicyclo[3.2.1]octan-3-yl)-7-(8-ethynyl-7-fluoro-3-hydroxy-1-naphthyl)-8-fluoro-pyrido[4,3-d]pyrimidin-2-yl]oxyethyl]-4-piperidyl]methyl]piperazin-1-yl]methyl]-1-piperidyl]-1-oxo-isoindolin-2-yl]piperidine-2,6-dione]	> 70	< 5.1
C#Cc1c(F)ccc2cc(O)cc(-c3ncc4c(N5CC6CCC(C5)N6)nc(OCCN5CCC6(CC5)CCN(CC5CCN(c7ccc8c(c7Cl)CN(C7CCC(=O)NC7=O)C8=O)CC5)CC6)nc4c3F)c12 (centres unmarked) [Compound 220, 3-(4-chloro-5-{4-[(9-{2-[(4-{3,8-diazabicyclo[3.2.1]octan-3-yl}-7-(8-ethynyl-7-fluoro-3-hydroxynaphthalen-1-yl)-8-fluoropyrido[4,3-d]pyrimidin-2-yl)oxy]ethyl}-3,9-diazaspiro[5.5]undecan-3-yl)methyl]piperidin-1-yl}-1-oxo-2,3-dihydro-1H-isoindol-2-yl)piperidine-2,6-dione]	> 70	< 5.1
C#Cc1c(F)ccc2cc(O)cc(-c3ncc4c(N5CC6CCC(C5)N6)nc(OCCN5CCC(CN6CCN(CC7CCN(c8ccc9c(c8)n(C)c(=O)n9C8CCC(=O)NC8=O)CC7)CC6)CC5)nc4c3F)c12 (centres unmarked) [Compound 221, 3-{5-[4-({4-[(1-{2-[(4-{3,8-diazabicyclo[3.2.1]octan-3-yl}-7-(8-ethynyl-7-fluoro-3-hydroxynaphthalen-1-yl)-8-fluoropyrido[4,3-d]pyrimidin-2-yl)oxy]ethyl}piperidin-4-yl)methyl]piperazin-1-yl}methyl)piperidin-1-yl]-3-methyl-2-oxo-2,3-dihydro-1H-1,3-benzodiazol-1-yl}piperidine-2,6-dione]	> 70	< 5.1
C#Cc1c(F)ccc2cc(O)cc(-c3ncc4c(N5CC6CCC(C5)N6)nc(OCCN5CCC(CN6CCN(CC7CCN(c8ccc9c(c8)n(C(C)C)c(=O)n9C8CCC(=O)NC8=O)CC7)CC6)CC5)nc4c3F)c12 (centres unmarked) [Compound 222, 3-{5-[4-({4-[(1-{2-[(4-{3,8-diazabicyclo[3.2.1]octan-3-yl}-7-(8-ethynyl-7-fluoro-3-hydroxynaphthalen-1-yl)-8-fluoropyrido[4,3-d]pyrimidin-2-yl)oxy]ethyl}piperidin-4-yl)methyl]piperazin-1-yl}methyl)piperidin-1-yl]-2-oxo-3-(propan-2-yl)-2,3-dihydro-1H-1,3-benzodiazol-1-yl}piperidine-2,6-dione]	> 70	< 5.1
C#Cc1c(F)ccc2cc(O)cc(-c3ncc4c(N5CC6CCC(C5)N6)nc(OCCN5CCC(CN6CCC(CN7CCN(c8ccc9c(c8F)CN(C8CCC(=O)NC8=O)C9=O)CC7)CC6)CC5)nc4c3F)c12 (centres unmarked) [Compound 223, 3-{5-[4-({1-[(1-{2-[(4-{3,8-diazabicyclo[3.2.1]octan-3-yl}-7-(8-ethynyl-7-fluoro-3-hydroxynaphthalen-1-yl)-8-fluoropyrido[4,3-d]pyrimidin-2-yl)oxy]ethyl}piperidin-4-yl)methyl]piperidin-4-yl}methyl)piperazin-1-yl]-4-fluoro-1-oxo-2,3-dihydro-1H-isoindol-2-yl}piperidine-2,6-dione]	> 70	< 5.1
C#Cc1c(F)ccc2cc(O)cc(-c3ncc4c(N5CC6CCC(C5)N6)nc(OC[C@@H]5C[C@@H](OC6CCN(CC7CCN(c8ccc9c(c8F)n(C(C)C)c(=O)n9C8CCC(=O)NC8=O)CC7)CC6)CN5C)nc4c3F)c12 (stereo partly drawn) [Compound 224, 3-(5-{4-[(4-{[(3R,5S)-5-{[(4-{3,8-diazabicyclo[3.2.1]octan-3-yl}-7-(8-ethynyl-7-fluoro-3-hydroxynaphthalen-1-yl)-8-fluoropyrido[4,3-d]pyrimidin-2-yl)oxy]methyl}-1-methylpyrrolidin-3-yl]oxy}piperidin-1-yl)methyl]piperidin-1-yl}-4-fluoro-2-oxo-3-(propan-2-yl)-2,3-dihydro-1H-1,3-benzodiazol-1-yl)piperidine-2,6-dione]	> 70	< 5.1
C#Cc1c(F)ccc2cc(O)cc(-c3ccc4c(N5CC6CCC(C5)N6)nc(OCCN5CCN(CC6CCN(CC7CCN(c8ccc9c(c8)n(C)c(=O)n9C8CCC(=O)NC8=O)CC7)CC6)CC5(C)C)nc4c3F)c12 (centres unmarked) [Compound 227]	–	< 5.1
C#Cc1c(F)ccc2cccc(-c3ncc4c(N5CC6CCC(C5)N6)nc(OCC5(CN6CCC(F)(CN7CCN(c8ccc9c(c8)n(C)c(=O)n9C8CCC(=O)NC8=O)CC7)CC6)CC5)nc4c3F)c12 (centres unmarked) [Compound 228, 3-[5-[4-[[1-[[1-[[4-(3,8-diazabicyclo[3.2.1]octan-3-yl)-7-(8-ethynyl-7-fluoro-1-naphthyl)-8-fluoro-pyrido[4,3-d]pyrimidin-2-yl]oxymethyl]cyclopropyl]methyl]-4-fluoro-4-piperidyl]methyl]piperazin-1-yl]-3-methyl-2-oxo-benzimidazol-1-yl]piperidine-2,6-dione]	–	< 5.1
